Reference: ChEMBL document CHEMBL3414470, “Synthesis and biological evaluation of 4-oxycoumarin derivatives as a new class of antifilarial agents” (Eur J Med Chem, 2015)
In brackets after ≈: the same amount, converted by molar mass. Activity calls are given as the source filed them. The rule behind the calls is not given here.

Assays:
Brugia malayi [1] = experiment: Antifilarial activity against Brugia malayi adult worm infected in jird model assessed as sterile female at 100 mg/kg, sc after 5 days measured till day 45 relative to control; assay type: functional; conditions: route subcutaneous
Brugia malayi [2] = experiment: Antifilarial activity against Brugia malayi microfilariae infected in jird model assessed as microfilaricidal activity at 100 mg/kg, sc after 5 days measured till day 45 relative to control; assay type: functional; conditions: route subcutaneous
Brugia malayi [3] = experiment: Antifilarial activity against Brugia malayi adult worm assessed as reduction in motility after 5 days by MTT dye reduction assay; assay type: functional, organism-based
Brugia malayi [4] = experiment: Antifilarial activity against Brugia malayi microfilaria assessed as reduction in motility after 5 days by MTT dye reduction assay; assay type: functional, organism-based
Brugia malayi [5] = experiment: Antifilarial activity against Brugia malayi adult worm infected in jird model assessed as adulticidal activity at 100 mg/kg, sc after 5 days measured till day 45 relative to control; assay type: functional; conditions: route subcutaneous
Brugia malayi [6] = experiment: Antifilarial activity against Brugia malayi microfilaria assessed as reduction in motility at 0.078 uM after 5 days by MTT dye reduction assay; assay type: functional; conditions: 120 h
Brugia malayi [7] = experiment: Antifilarial activity against Brugia malayi microfilaria assessed as reduction in motility at 0.039 uM after 5 days by MTT dye reduction assay; assay type: functional; conditions: 120 h
Brugia malayi [8] = experiment: Antifilarial activity against Brugia malayi adult worm assessed as reduction in motility at 0.156 uM after 5 days by MTT dye reduction assay; assay type: functional; conditions: 120 h
[9] = Selectivity index, ratio of CC50 for African green monkey Vero cells to IC50 for Brugia malayi adult worm; assay type: functional
Brugia malayi [10] = experiment: Antifilarial activity against Brugia malayi adult worm assessed as reduction in motility at 0.019 uM after 5 days by MTT dye reduction assay; assay type: functional; conditions: 120 h
Brugia malayi [11] = experiment: Antifilarial activity against Brugia malayi microfilaria assessed as reduction in motility at 0.625 uM after 5 days by MTT dye reduction assay; assay type: functional; conditions: 120 h
Brugia malayi [12] = experiment: Ratio of ivermectin IC50 to compound IC50 for Brugia malayi microfilariae; assay type: functional
Brugia malayi [13] = experiment: Antifilarial activity against Brugia malayi microfilaria assessed as reduction in motility at 0.156 uM after 5 days by MTT dye reduction assay; assay type: functional; conditions: 120 h
Brugia malayi [14] = experiment: Antifilarial activity against Brugia malayi adult worm assessed as reduction in motility at 0.039 uM after 5 days by MTT dye reduction assay; assay type: functional; conditions: 120 h
[15] = Cytotoxicity against African green monkey Vero cells after 72 hrs by resazurin dye-based fluorescence assay; assay type: cell-based; conditions: chlorocebus sabaeus, Vero cells
Brugia malayi [16] = experiment: Ratio of ivermectin IC50 to compound IC50 for Brugia malayi adult worm; assay type: functional
Brugia malayi [17] = experiment: Antifilarial activity against Brugia malayi adult worm assessed as reduction in motility at 0.312 uM after 5 days by MTT dye reduction assay; assay type: functional; conditions: 120 h
Brugia malayi [18] = experiment: Antifilarial activity against Brugia malayi adult worm assessed as reduction in motility at 0.078 uM after 5 days by MTT dye reduction assay; assay type: functional; conditions: 120 h
Brugia malayi [19] = experiment: Antifilarial activity against Brugia malayi microfilaria assessed as reduction in motility at 1.25 uM after 5 days by MTT dye reduction assay; assay type: functional; conditions: 120 h
Brugia malayi [20] = experiment: Antifilarial activity against Brugia malayi adult worm assessed as reduction in motility at 0.625 uM after 5 days by MTT dye reduction assay; assay type: functional; conditions: 120 h
Brugia malayi [21] = experiment: Antifilarial activity against Brugia malayi adult worm assessed as reduction in motility at 1.25 uM after 5 days by MTT dye reduction assay; assay type: functional; conditions: 120 h
Brugia malayi [22] = experiment: Antifilarial activity against Brugia malayi microfilaria assessed as reduction in motility at 0.019 uM after 5 days by MTT dye reduction assay; assay type: functional; conditions: 120 h
[23] = Selectivity index, ratio of CC50 for African green monkey Vero cells to IC50 for Brugia malayi microfilaria; assay type: functional
Brugia malayi [24] = experiment: Antifilarial activity against Brugia malayi microfilaria assessed as reduction in motility at 0.312 uM after 5 days by MTT dye reduction assay; assay type: functional; conditions: 120 h
Brugia malayi [25] = experiment: Antifilarial activity against Brugia malayi adult worm assessed as reduction in motility at 2.5 uM after 5 days by MTT dye reduction assay; assay type: functional; conditions: 120 h
Brugia malayi [26] = experiment: Antifilarial activity against Brugia malayi adult worm assessed as reduction in motility at 5 uM after 5 days by MTT dye reduction assay; assay type: functional; conditions: 120 h
Brugia malayi [27] = experiment: Antifilarial activity against Brugia malayi microfilaria assessed as reduction in motility at 5 uM after 5 days by MTT dye reduction assay; assay type: functional; conditions: 120 h
Brugia malayi [28] = experiment: Antifilarial activity against Brugia malayi microfilaria assessed as reduction in motility at 2.5 uM after 5 days by MTT dye reduction assay; assay type: functional; conditions: 120 h
Brugia malayi [29] = experiment: Antifilarial activity against Brugia malayi microfilaria assessed as reduction in motility at 10 uM after 5 days by MTT dye reduction assay; assay type: functional, organism-based
Brugia malayi [30] = experiment: Antifilarial activity against Brugia malayi adult worm assessed as reduction in motility at 10 uM after 5 days by MTT dye reduction assay; assay type: functional, organism-based

MIC (Brugia malayi [3])	MIC (Brugia malayi [4])	MIC (Brugia malayi [3]; Brugia malayi, 120 h)	MIC (Brugia malayi [4]; Brugia malayi, 120 h)	Structure (SMILES)	Activity (Brugia malayi [1])	Activity (Brugia malayi [2])	Activity (Brugia malayi [5])	Ratio CC50/IC50 [9]	inhibition at 0.625 µM (Brugia malayi [11])	IC50 (Brugia malayi [3]; Brugia malayi, 120 h)	IC50 (Brugia malayi [4]; Brugia malayi, 120 h)	CC50 at 72 h [15]	inhibition at 0.312 µM (Brugia malayi [17])	inhibition at 1.25 µM (Brugia malayi [19])	inhibition at 0.625 µM (Brugia malayi [20])	inhibition at 1.25 µM (Brugia malayi [21])	Ratio CC50/IC50 [23]	inhibition at 0.312 µM (Brugia malayi [24])	inhibition at 5 µM (Brugia malayi [26])	inhibition at 5 µM (Brugia malayi [27])	further results
inactive	inactive			CCN(CC)C(=O)N1CCN(C)CC1 [DIETHYLCARBAMAZINE]	0%	39.5%	33.3%														
		1.25 µM (≈ 0.504 µg/mL)	0.625 µM (≈ 0.252 µg/mL)	CCCCCCCCCCCCNCC(O)COc1cc(=O)oc2ccccc12 (stereo not given)	19.3%	50.8%	74.9%	>7142	75%	14 nM	5.6 nM	> 100000 nM	90.8%	100%	92.4%	99.5%	>17857	75%			inhibition at 0.078 µM (Brugia malayi [6]): 75%; inhibition at 0.039 µM (Brugia malayi [7]): 75%; inhibition at 0.156 µM (Brugia malayi [8]): 75.5%; inhibition at 0.019 µM (Brugia malayi [10]): 30%; Ratio IC50 (Brugia malayi [12]): 714; inhibition at 0.156 µM (Brugia malayi [13]): 75%; inhibition at 0.039 µM (Brugia malayi [14]): 50%; Ratio IC50 (Brugia malayi [16]): 129; inhibition at 0.078 µM (Brugia malayi [18]): 56%; inhibition at 0.019 µM (Brugia malayi [22]): 50%
		5 µM (≈ 1.38 µg/mL)	2.5 µM (≈ 0.688 µg/mL)	O=c1cc(OCC(O)CNC2CC2)c2ccccc2o1 (stereo not given)	0%	31.4%	52.8%	>113.6	75%	880 nM	380 nM	> 100000 nM		75%	34.3%	43.7%	>263.15		97.5%	100%	inhibition at 2.5 µM (Brugia malayi [25]): 56.4%; inhibition at 2.5 µM (Brugia malayi [28]): 75%
inactive	inactive			O=c1cc(OCC(O)CN2CCCCC2)c2ccccc2o1 (stereo not given)															23.7%	1%	Activity (Brugia malayi [29]): inactive; Activity (Brugia malayi [30]): inactive
		0.31 µM (≈ 0.151 µg/mL)	0.31 µM (≈ 0.151 µg/mL)	CCCCCCCC/C=C/CCCCCCCCNCC(O)COc1cc(=O)oc2ccccc12 (stereo not given)	16.6%	50.9%	69.4%	>1063		94 nM	13 nM	> 100000 nM	90.4%				>7692	100%			inhibition at 0.078 µM (Brugia malayi [6]): 75%; inhibition at 0.039 µM (Brugia malayi [7]): 50%; inhibition at 0.156 µM (Brugia malayi [8]): 45%; inhibition at 0.019 µM (Brugia malayi [10]): 8.5%; inhibition at 0.156 µM (Brugia malayi [13]): 75%; inhibition at 0.039 µM (Brugia malayi [14]): 10.2%; inhibition at 0.078 µM (Brugia malayi [18]): 42%; inhibition at 0.019 µM (Brugia malayi [22]): 50%
		5 µM (≈ 1.59 µg/mL)	2.5 µM (≈ 0.796 µg/mL)	CN1CCN(CC(O)COc2cc(=O)oc3ccccc23)CC1 (stereo not given)	0%	30.4%	44.4%	>57.8	75%	1730 nM	280 nM	> 100000 nM	11.8%	75%	29.8%	38.7%	>357.14	75%	85.6%	100%	inhibition at 2.5 µM (Brugia malayi [25]): 45.8%; inhibition at 2.5 µM (Brugia malayi [28]): 75%
